Assay results published in ChEMBL document CHEMBL3822421, “Insights into the structure-activity relationship of the anticancer compound ZJ-101, a derivative of marine natural product superstolide A: A critical role played by the conjugated trienyl lactone moiety” (Bioorg Med Chem Lett, 2016).

How the values were obtained:
Assay type in all cases: functional, cell-based
[1] = tested on: MDA-MB-231; assay: Antiproliferative activity against human MDA-MB-231 cells after 48 to 72 hrs by Alamar blue assay
[2] = Antiproliferative activity against human SF295 cells after 48 to 72 hrs by Alamar blue assay; settings: SF-295
[3] = tested on: MCF7; assay: Antiproliferative activity against human MCF7 cells after 48 to 72 hrs by Alamar blue assay
[4] = tested on: RKO; assay: Antiproliferative activity against human RKO cells after 48 to 72 hrs by Alamar blue assay

SMILES	IC50 [1] [nM]	IC50 [2] [nM]	IC50 [3] [nM]	IC50 [4] [nM]
CC(=O)N[C@H](C)[C@@H](O)[C@@H](C)[C@@H]1OC(=O)/C=C/C=C(C)\C=C\[C@]2(C)CCC=C[C@@H]2/C=C(C)/C=C/[C@H]1C	63	63.5	36.5	214
CC(=O)N[C@H](C)[C@@H](O)[C@@H](C)[C@@H]1OC(=O)/C=C/C=C(C)/C=C/[C@]2(C)CCC=C[C@@H]2/C=C(C)/C=C/[C@H]1C	384	611	376	1070
CC(=O)N[C@H](C)[C@@H](O)[C@@H](C)[C@@H]1OC(=O)CC/C=C(C)\C=C\[C@]2(C)CCC=C[C@@H]2/C=C(C)/C=C/[C@H]1C	> 5000	> 5000	> 5000	> 5000
